Experimental data: ChEMBL document CHEMBL4834462, “Naphtho-γ-pyrone Dimers from an Endozoic Aspergillus niger and the Effects of Coisolated Monomers in Combination with Cisplatin on a Cisplatin-Resistant A549 Cell Line” (J Nat Prod, 2021)
Calls of active or inactive are those of the source. No cut-off for these calls is given here.

Tests used:
[1] = test system: A549; experiment: Anticancer activity against cisplatin-resistant human A549 cells assessed as reduction in cell viability measured after 48 hrs in presence of cisplatin by MTT assay; assay type: functional, cell-based; conditions: A549, 48 h
[2] = test system: A549; experiment: Downregulation of NQO-1 protein expression in cisplatin-resistant human A549 cells at 15 uM incubated for 48 hrs in presence of cisplatin by western blot analysis; assay type: functional, cell-based
[3] = test system: A549; experiment: Synergistic antiproliferative activity against cisplatin-resistant human A549 cells assessed as combination index at 10 uM incubated for 48 hrs in presence of 3 uM cisplatin by MTT assay; assay type: functional
[4] = test system: A549; experiment: Induction of apoptosis in cisplatin-resistant human A549 cells assessed as early apoptotic cells at 20 uM incubated for 24 hrs by AnnexinV-FITC/PI staining based flow cytometry (reference value: 2.17%); assay type: functional
[5] = test system: A549; experiment: Synergistic antiproliferative activity against cisplatin-resistant human A549 cells assessed as combination index at 15 uM incubated for 48 hrs in presence of 1.5 uM cisplatin by MTT assay; assay type: functional
[6] = test system: A549; experiment: Synergistic antiproliferative activity against cisplatin-resistant human A549 cells assessed as combination index at 15 uM incubated for 48 hrs in presence of 4.5 uM cisplatin by MTT assay; assay type: functional
[7] = test system: A549; experiment: Inhibition of redox balance in cisplatin-resistant human A549 cells assessed as reduction in ratio of GSH/GSSG measured after 24 hrs; assay type: functional, cell-based; conditions: dose 10-20 µM
[8] = test system: A549; experiment: Synergistic antiproliferative activity against cisplatin-resistant human A549 cells assessed as combination index at 20 uM incubated for 48 hrs in presence of 4.5 uM cisplatin by MTT assay; assay type: functional
[9] = test system: A549; experiment: Induction of apoptosis in cisplatin-resistant human A549 cells assessed as viable cells at 10 uM incubated for 24 hrs by AnnexinV-FITC/PI staining based flow cytometry (reference value: 86.5%); assay type: functional; conditions: read-out: Activity
[10] = test system: A549; experiment: Synergistic antiproliferative activity against cisplatin-resistant human A549 cells assessed as combination index at 10 uM incubated for 48 hrs in presence of 1.5 uM cisplatin by MTT assay; assay type: functional
[11] = test system: A549; experiment: Synergistic antiproliferative activity against cisplatin-resistant human A549 cells assessed as combination index at 20 uM incubated for 48 hrs in presence of 1.5 uM cisplatin by MTT assay; assay type: functional
[12] = test system: A549; experiment: Induction of apoptosis in cisplatin-resistant human A549 cells assessed as viable cells at 20 uM incubated for 24 hrs by AnnexinV-FITC/PI staining based flow cytometry (reference value: 86.5%); assay type: functional; conditions: read-out: Activity
[13] = test system: A549; experiment: Synergistic antiproliferative activity against cisplatin-resistant human A549 cells assessed as combination index at 20 uM incubated for 48 hrs in presence of 3 uM cisplatin by MTT assay; assay type: functional
[14] = test system: A549; experiment: Induction of intracellular ROS generation in cisplatin-resistant human A549 cells measured after 24 hrs by DCFH-DA staining based laser scanning confocal microscopy; assay type: functional, cell-based; conditions: dose 10-20 µM
[15] = test system: A549; experiment: Synergistic antiproliferative activity against cisplatin-resistant human A549 cells assessed as combination index at 10 uM incubated for 48 hrs in presence of 4.5 uM cisplatin by MTT assay; assay type: functional
[16] = test system: A549; experiment: Induction of apoptosis in cisplatin-resistant human A549 cells assessed as late apoptotic cells at 20 uM incubated for 24 hrs by AnnexinV-FITC/PI staining based flow cytometry (reference value: 10.8%); assay type: functional
[17] = test system: A549; experiment: Downregulation of AKT protein expression in cisplatin-resistant human A549 cells at 15 uM incubated for 48 hrs in presence of cisplatin by western blot analysis; assay type: functional, cell-based
[18] = test system: A549; experiment: Downregulation of Nrf2 protein expression in cisplatin-resistant human A549 cells at 15 uM incubated for 48 hrs in presence of cisplatin by western blot analysis; assay type: functional, cell-based
[19] = test system: A549; experiment: Induction of apoptosis in cisplatin-resistant human A549 cells assessed as early apoptotic cells at 10 uM incubated for 24 hrs by AnnexinV-FITC/PI staining based flow cytometry (reference value: 2.17%); assay type: functional
[20] = test system: A549; experiment: Induction of apoptosis in cisplatin-resistant human A549 cells assessed as late apoptotic cells at 10 uM incubated for 24 hrs by AnnexinV-FITC/PI staining based flow cytometry (reference value: 10.8%); assay type: functional
[21] = test system: A549; experiment: Downregulation of HO-1 protein expression in cisplatin-resistant human A549 cells at 15 uM incubated for 48 hrs in presence of cisplatin by western blot analysis; assay type: functional, cell-based
[22] = test system: A549; experiment: Induction of apoptosis in cisplatin-resistant human A549 cells assessed as necrotic cells at 10 uM incubated for 24 hrs by AnnexinV-FITC/PI staining based flow cytometry (reference value: 0.53%); assay type: functional
[23] = test system: A549; experiment: Downregulation of HO-1 protein expression in cisplatin-resistant human A549 cells at 15 uM incubated for 48 hrs by western blot analysis; assay type: functional, cell-based
[24] = test system: A549; experiment: Synergistic antiproliferative activity against cisplatin-resistant human A549 cells assessed as combination index at 15 uM incubated for 48 hrs in presence of 3 uM cisplatin by MTT assay; assay type: functional
[25] = test system: A549; experiment: Induction of apoptosis in cisplatin-resistant human A549 cells assessed as necrotic cells at 20 uM incubated for 24 hrs by AnnexinV-FITC/PI staining based flow cytometry (reference value: 0.53%); assay type: functional

Work on `COc1cc(OC)c2c(O)c3c(=O)cc(C)oc3c(-c3c(OC)cc4cc(O)c5c(=O)cc(C)oc5c4c3OC)c2c1` [FONSECINONE A] yielded an IC50 [1] of over 20 µM.

For `COc1cc(OC)c2c(O)c3c(=O)cc(C)oc3c(-c3c(O)cc4cc(O)c5c(=O)cc(C)oc5c4c3OC)c2c1` [ASPERPYRONE A], the IC50 [1] was over 20 µM.

`COc1cc(OC)c2c(c1)c(-c1c(OC)cc3cc(O)c4c(=O)cc(C)oc4c3c1OC)c(O)c1c(=O)cc(C)oc12` showed an IC50 [1] of over 20 µM.

In the case of `COc1cc(OC)c2c(O)c3c(=O)cc(C)oc3c(-c3c(OC)cc4cc5oc(C)cc(=O)c5c(O)c4c3OC)c2c1` [AURASPERONE A], the IC50 [1] is reported as over 20 µM.

Work on `COc1cc(OC)c2c(c1)c(-c1c(O)cc3cc4oc(C)cc(=O)c4c(O)c3c1OC)c(O)c1c(=O)cc(C)oc12` yielded an IC50 [1] of over 20 µM.

Work on `COc1cc(OC)c2c(c1)c(-c1c(OC)cc3cc4oc(C)cc(=O)c4c(O)c3c1OC)c(O)c1c(=O)cc(C)oc12` [ASPERPYRONE C] yielded an IC50 [1] of over 20 µM.

Work on `COc1cc(OC)c2c(O)c3c(=O)cc(C)oc3cc2c1` [RUBROFUSARIN B] yielded an IC50 [1] of over 20 µM.

In the case of `COc1cc(OC)c2c(O)c3c(=O)cc(C)oc3c(-c3c(O)cc4cc5oc(C)cc(=O)c5c(O)c4c3OC)c2c1`, the IC50 [1] is reported as over 20 µM.

Compound `COc1cc(O)cc2cc3oc(C)cc(=O)c3c(O)c12` has an IC50 [1] of over 20 µM.

For `O=C1C=C2O[C@H]3CC(=O)c4c(O)cc(O)cc4C3=C2c2cc(O)cc(O)c21`, the IC50 [1] was over 20 µM.

In the case of `COc1cc(OC)c2c(O)c3c(c(-c4c(OC)cc5cc(O)c6c(=O)cc(C)oc6c5c4OC)c2c1)O[C@](C)(O)CC3=O`, the IC50 [1] is reported as over 20 µM.

For `COc1cc(O)cc2cc(O)c3c(=O)cc(C)oc3c12`, the inhibition [2] was “Active”, the CI [3] was 0.95 and the Activity [4] was 4.05%. For the same compound, the CI [5] was 0.75, the CI [6] was 0.79 and the inhibition [7] was “Dose-Dependent Effect”. For the same compound, the CI [8] was 0.81, the viability at 10 µM [9] was 72.6% and the CI [10] was 1.95. It also gave a CI [11] of 0.76, a viability at 20 µM [12] of 53.3% and an IC50 [1] of over 20 µM. For the same compound, the CI [13] was 0.76, the Activity [14] was “Dose-Dependent Effect” and the CI [15] was 0.83. For the same compound, the Activity [16] was 41.3%, the inhibition [17] was “Active” and the inhibition [18] was “Active”. For the same compound, the Activity [19] was 2.87%, the Activity [20] was 23.6% and the inhibition [21] was “Active”. The Activity [22] was 0.9%, the inhibition [23] was “Active” and the CI [24] was 0.72. The Activity [25] was 1.34%.
